Measured values as given in PubChem BioAssay AID214 (DTP/NCI, 2004).
Values joined by “and” are separate entries in the source; they are usually repeats but may differ in a detail not shown here. Equal values may be shown once. Inconclusive results are not listed.

Tested on: B6C3F1 mice, colon carcinoma 38 s.c., T/C
Test: NCI In Vivo Anticancer Drug Screen. Data for tumor model Colon Carcinoma 38 (subcutaneous) in B6C3F1 mice
Details: endpoint: median tumor weight (est.), higher = larger tumour
Experimental: The antitumor activity of compounds was measured in mice bearing transplantable tumors. Survival or tumor size were measured and the results are expressed as the measurement made in the treated group (T) divided by the measurement made in the vehicle treated control group (C). The tumor model used in this assay is Colon Carcinoma 38 (subcutaneous) in B6C3F1 mice

[1] = dose: 6.25 mg/kg/injection, schedule: Q07DX002 (ip), vehicle: saline
[2] = dose: 25.0 mg/kg/injection, schedule: Q07DX002 (ip), vehicle: saline with Tween-80
[3] = dose: 50.0 mg/kg/injection, schedule: Q07DX002 (ip), vehicle: saline with Tween-80
[4] = dose: 200.0 mg/kg/injection, schedule: Q07DX002 (ip), vehicle: saline with Tween-80
[5] = dose: 25.0 mg/kg/injection, schedule: Q07DX002 (ip), vehicle: saline
[6] = dose: 50.0 mg/kg/injection, schedule: Q07DX002 (ip), vehicle: saline
[7] = dose: 100.0 mg/kg/injection, schedule: Q07DX002 (ip), vehicle: saline
[8] = dose: 400.0 mg/kg/injection, schedule: Q07DX002 (ip), vehicle: saline
[9] = dose: 400.0 mg/kg/injection, schedule: Q07DX002 (ip), vehicle: saline with Tween-80
[10] = dose: 100.0 mg/kg/injection, schedule: Q07DX002 (ip), vehicle: saline with Tween-80

`Cc1cc(NCCCN(C)C)c2ccc3c(ccc4c(NCCCN(C)C)cc(C)nc43)c2n1` was tested, and the T/C (dose: 0.78 mg/kg/injection, schedule: Q07DX002 (ip), vehicle: saline) was 97 % of control, the T/C (dose: 1.56 mg/kg/injection, schedule: Q07DX002 (ip), vehicle: saline) was 91 % of control and the T/C (dose: 3.12 mg/kg/injection, schedule: Q07DX002 (ip), vehicle: saline) was 115 % of control. For the same compound, the T/C [1] was 100 % of control.

For `CCCCCc1cc(O)c2c(c1)OC(C)(C)[C@@H]1CCC(C)=C[C@@H]21`, the T/C (dose: 200.0 mg/kg/injection, schedule: Q07DX002 (ip), vehicle: other) was 81 % of control and the T/C (dose: 400.0 mg/kg/injection, schedule: Q07DX002 (ip), vehicle: other) was 98 % of control.

For `Cc1ccoc1`, the T/C (dose: 16.8 mg/kg/injection, schedule: Q03HX006 (ip), vehicle: saline with Tween-80) was 75 % of control, the T/C (dose: 33.33 mg/kg/injection, schedule: Q03HX006 (ip), vehicle: saline with Tween-80) was 109 % of control and the T/C (dose: 66.66 mg/kg/injection, schedule: Q03HX006 (ip), vehicle: saline with Tween-80) was 114 % of control. The T/C (dose: 133.33 mg/kg/injection, schedule: Q03HX006 (ip), vehicle: saline with Tween-80) was 108 % of control.

`CC1c2ccccc2CC(CCN(C)C)c2ccccc21` (stereo unspecified) was tested, and the T/C (dose: 12.5 mg/kg/injection, schedule: Q07DX002 (ip), vehicle: saline with Tween-80) was 164 % of control, the T/C [2] was 84 % of control and the T/C [3] was 108 % of control. For the same compound, the T/C [4] was 69 % of control.

With `O=C(O)Cc1cccc2c(=O)c(-c3ccccc3)c(-c3ccccc3)oc12` the T/C (dose: 100.0 mg/kg/injection, schedule: Q07DX002 (ip), vehicle: Klucel (hydroxypropylcellulose) (HPC)) was 11 % of control.

In the case of `NC(=O)c1ccc[n+](Cc2c(Cl)cccc2Cl)c1`, the T/C [5] is reported as 86 % of control and the T/C [6] is reported as 94 % of control.

In the case of `N[C@@H](Cc1ccc(N(CCCl)CCCl)cc1)C(=O)O`, the T/C (dose: 1.2 mg/kg/injection, schedule: Q01DX006 (ip), vehicle: saline) is reported as 35 % of control, the T/C (dose: 1.8 mg/kg/injection, schedule: Q01DX006 (ip), vehicle: saline) is reported as 62 % of control and the T/C (dose: 2.7 mg/kg/injection, schedule: Q01DX006 (ip), vehicle: saline) is reported as 38 % of control. The T/C (dose: 4.0 mg/kg/injection, schedule: Q01DX006 (ip), vehicle: saline) was 50 % of control.

For `O=C(O)C1CC(O)CN1` (stereo unspecified), the T/C [6] was 93 % of control, the T/C [7] was 87 % of control and the T/C [8] was 79 % of control.

`Nc1ccc2ccc(NS(=O)(=O)N3CCCCC3)cc2c1` was tested, and the T/C [3] was 108 % of control, the T/C [4] was 39 % of control and the T/C [9] was 15 % of control.

With `CCOC(=O)C(N)C[S][Sn]([CH3])([CH3])[Cl]` (stereo unspecified) the T/C [1] was 123 % of control, the T/C (dose: 12.5 mg/kg/injection, schedule: Q07DX002 (ip), vehicle: saline) was 61 % of control and the T/C [5] was 90 % of control. The T/C [6] was 110 % of control.

For `COC(=O)C[C@](O)(CCC(C)(C)O)C(=O)O[C@@H]1C(OC)=C[C@]23CCCN2CCc2cc4c(cc2[C@H]13)OCO4`, the T/C (dose: 0.5 mg/kg/injection, schedule: Q07DX002 (ip), vehicle: saline) was 117 % of control, the T/C (dose: 1.0 mg/kg/injection, schedule: Q07DX002 (ip), vehicle: saline) was 54 % of control and the T/C (dose: 2.0 mg/kg/injection, schedule: Q07DX002 (ip), vehicle: saline) was 40 % of control. For the same compound, the T/C (dose: 4.0 mg/kg/injection, schedule: Q07DX002 (ip), vehicle: saline) was 14 % of control.

`NC(=O)C1=CC2C3C=CC2(O)C(=O)OC3O1` (stereo unspecified) was tested, and the T/C (dose: 7.5 mg/kg/injection, schedule: Q07DX002 (ip), vehicle: Klucel (hydroxypropylcellulose) (HPC)) was 73 % of control, the T/C (dose: 15.0 mg/kg/injection, schedule: Q07DX002 (ip), vehicle: Klucel (hydroxypropylcellulose) (HPC)) was 86 % of control and the T/C (dose: 30.0 mg/kg/injection, schedule: Q07DX002 (ip), vehicle: Klucel (hydroxypropylcellulose) (HPC)) was 112 % of control.

In the case of `CCN(CC)CCOC(=O)Cc1cc(OC)cc2c(=O)cc(-c3ccccc3)oc12`, the T/C (dose: 200.0 mg/kg/injection, schedule: Q07DX002 (ip), vehicle: Klucel (hydroxypropylcellulose) (HPC)) is reported as 37 % of control and the T/C (dose: 400.0 mg/kg/injection, schedule: Q07DX002 (ip), vehicle: Klucel (hydroxypropylcellulose) (HPC)) is reported as 73 % of control.

`COc1ccc2c(ccc3oc([N+](=O)[O-])cc32)c1` was tested, and the T/C [3] was 101 % of control, the T/C [10] was 116 % of control and the T/C [4] was 90 % of control. For the same compound, the T/C [9] was 92 % of control.

In the case of `O=C1[C@H]2CCC[C@H]2[C@H]2CCC[C@@H]12`, the T/C [2] is reported as 106 % of control and 109 % of control, the T/C [3] is reported as 95 % of control and 107 % of control and the T/C [10] is reported as 41 % of control. The T/C [4] was 100 % of control and 116 % of control and the T/C [9] was 104 % of control.

With `O=C(O)Cc1cccc2c(=O)cc(Cc3ccccc3)oc12` the T/C [7] was 60 % of control, the T/C (dose: 200.0 mg/kg/injection, schedule: Q07DX002 (ip), vehicle: saline) was 111 % of control and the T/C [8] was 122 % of control.

In the case of `Nc1nc(N)c2cc(S(=O)(=O)c3ccccc3)ccc2n1`, the T/C [3] is reported as 62 % of control, the T/C [10] is reported as 45 % of control and the T/C [4] is reported as 44 % of control. For the same compound, the T/C [9] was 24 % of control.
